One data set deals with albumin. The data set can be described thus: Plasma protein (albumin) binding by ultracentrifugation. As to conditions: pooled human plasma. It counts as in vitro ADME. How it is done: (§1) Clearance, half-life and plasma protein binding were assayed at TGC LifeScience, Kolkata, India, as described before.[36] Test compounds were incubated in duplicate in 96-well plates at 1 μM concentration with pooled human liver microsomes in 0.1 M phosphate buffer, pH 7.4 (0.4 mg mL^–1 final protein concentration; XenoTech, Lenexa, KS) in the presence and absence of 1 mM NADPH. Metabolism reactions were stopped by addition of 300 μL of ice-cold acetonitrile containing carbamazepine at 0.0236 μg mL^–1 as an internal standard, collection and analysis of the supernatant by LC–MS/MS (Agilent Rapid Resolution HPLC, AB SCIEX 4500 MS). The relative loss of the test compound over time was used to determine the first order rate constant for calculation of the in vitro intrinsic clearance and half-life.[37] Plasma protein binding was determined by ultracentrifugation from pooled human plasma spiked with 5 μM test compound. Aliquots were transferred immediately (total plasma concentration) or after 1 h at 37 °C (protein bound fraction) to ice-cold acetonitrile containing 0.0236 μg mL^–1 carbamazepine as an internal standard, ultracentrifuged for 4 h at 37 °C (Beckman Optima L-80XP), and analyzed by LC–MS/MS (Agilent Rapid Resolution HPLC, AB SCIEX 4500 QTRAP MS).

The target of data set [1] is T1, PfFNT (Plasmodium falciparum, UniProt O77389).
T1 construct: expressed in transfected cells; membranes solubilized
T1 sequence (O77389 1-309): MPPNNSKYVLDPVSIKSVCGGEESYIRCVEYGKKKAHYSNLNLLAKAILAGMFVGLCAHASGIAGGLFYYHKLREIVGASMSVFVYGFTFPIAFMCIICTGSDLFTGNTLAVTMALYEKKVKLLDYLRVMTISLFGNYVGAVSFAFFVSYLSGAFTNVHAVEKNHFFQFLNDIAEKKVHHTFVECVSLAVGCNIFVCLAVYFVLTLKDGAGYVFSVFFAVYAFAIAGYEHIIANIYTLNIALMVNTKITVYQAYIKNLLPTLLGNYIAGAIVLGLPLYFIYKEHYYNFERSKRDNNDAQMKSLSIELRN
Nature of the data set: Fluorescence cross-correlation spectroscopy (FCCS) competition binding to solubilized PfFNT-GFP. As to conditions: competition against BH267.meta-DY647 tracer, Cheng Prusoff; read-out: Ki (FCCS, protein). The procedure: FCCS measurements were conducted and analyzed as before.[20],[30] Briefly, membranes of stably transfected cells expressing PfFNT with a C-terminal GFP (green) were solubilized. BH267.meta 2 fused with DY647 (red) was used as a tracer to monitor the binding of compounds in a competition assay. Assays were done in […] glass bottom plates (cat. no. PS96B-G175, SWISSCI, Switzerland) using a plate reader (Insight, Evotec Technologies, Germany) fitted with a U-Apo300 40× water immersion lens, NA 1.15 (Olympus, Japan). Excitation was done with an argon-ion laser (488 nm) and a helium–neon laser (633 nm). Fluorescence fluctuations were recorded 10 times for 5 s per sample and fitted using FCS+ plus Analyze (PerkinElmer software). Initially, IC50 values were determined from the concentration of the dual labeled complex titrated against a competitor in a range of 100 pM to 100 μM (Figure S1). Then, Ki values were calculated using the Cheng Prusoff equation[31] based on the previously determined KD value for the BH267.meta-DY647 tracer.[20]

In data set [2] the test system is Plasmodium falciparum 3D7 parasites. The data set can be described thus: P. falciparum 3D7 culture growth assay in erythrocytes (in vitro activity). The settings on record: 50 nM compound. The data set is classed as cell-based. How it is done:
The parasitemia was measured using an LSR II FACS (BD Biosciences) as described.[34],[35] Growth was assessed as % of untreated control. EC50 curves were plotted using Graph Pad Prism.
Transport assays in yeast were done in triplicate biological replicates. At least nine technical replicates were measured around the IC50 value, concentrations with no or full inhibition were determined from at least three technical replicates. […] IC50 and EC50 curves were fitted by the Hill equation with variable slope (Graph Pad Prism 10). Error bars denote ± SEM (for n ≥ 3) or ± range (for n = 2). […] Cytotoxicity was determined from biological triplicates; error is shown as SEM.

Data set [3] has the same test system. As to conditions: read-out: EC50 (in vitro, 3D7), cited from earlier work.
For a further data set, the system named is P. berghei. Details: method as in PMID 37428074. As to conditions: all dosing regimens; cited from earlier work.
A short description of data set [4]: Microsomal clearance and half-life. The data set is classed as in vitro ADME, human. The settings on record: 1 μM compound, 0.4 mg mL^–1 protein. How it is done:
as §1

The nature of data set [5]: Lipophilicity log D7.4 by HPLC (OECD guideline). It counts as physicochemical. As to conditions: RP-8 HPLC column (ZORBAX Eclipse XDB-C8), pH 7.4. The procedure:
Lipophilicity was determined according to the OECD Guidelines for the Testing of Chemicals no. […]. Briefly, the test compounds plus 9 standards (4-acetylpyridine, acetanilide, acetophenone, methyl benzoate, ethyl benzoate, benzophenone, phenyl benzoate, diphenyl ether, triphenylamine) were separated by HPLC with UV detection at 220 nm (Waters HPLC 1525 with tunable absorbance detector 486) using an RP-8 column (Agilent Technologies ZORBAX Eclipse XDB-C8 4.6 × 150 mm, 5 μm) at 20 °C. Eluents A (20 mM ammonium formate, pH 7.4) and B (methanol) were used to generate a gradient profile of 80% A–100% B (0–35 min), 100% B (35–37 min), 100% B–80% A (37–42 min), and 80% A (42–55 min) at a flow rate of 0.8 mL min^–1. The dead time was determined via the injection peak caused by the solvent. The log D7.4 values were calculated by correlating the capacity factors with the known values of the standards via polynomial fitting.

In data set [6] the target is T1, PfFNT. As to conditions: 14C-lactate transport, PfFNT wild type; ref Golldack[4] et al. 2017; read-out: IC50 (transport, yeast); cited from earlier work.

Like-named read-outs stand apart in the source and are kept apart here. Bounds are passed on as bounds.

For `O=C(/C=C(\O)C(F)(F)C(F)(F)F)c1cccnc1` [compound 2, 4,4,5,5,5-Pentafluoro-3-hydroxy-1-(pyridin-3-yl)pent-2-en-1-one, reference compound], the “unbound fraction in plasma” value with albumin came to 8.76%. This compound also yielded an albumin binding in the data set on albumin (5 μM) of 91.24%. Further, the inhibition constant (Ki) on PfFNT [1] worked out at 35 ± 10 nM. Also, the activity at 0.05 µM in data set [2] (Plasmodium falciparum, 3D7, Erythrocyte, 48 h, % of untreated control, read-out: % Growth at 50 nM (in vitro, 3D7)) was greater than 90%. For the same compound, the inhibition at 0.05 µM in data set [2] (Plasmodium falciparum, 3D7, Erythrocyte, 100 minus % growth, read-out: inhibitory activity at 50 nM (in vitro, 3D7)) is less than 10%. In data set [3] (ref Walloch[6] et al. 2020), the EC50 is 240 ± 10 nM. In the data set with P. berghei, the parasites eliminated is greater than 99.7%. Also, the “human liver microsomes Clint” value in data set [4] is 3.98 mL min^–1 kg^–1. Also, the half-life at 1 µM in data set [4] (human, pooled human liver microsomes, pH 7.4, read-out: human liver microsomes t1/2) turned out to be 5.8 h. The same compound returned a chromatographic logD in data set [5] of 1.75.
Turning to “MMV007839 [compound 1, reference compound]”, the inhibition constant (Ki) at PfFNT [1] came out at 83 ± 33 nM. The IC50 on PfFNT [6] is 170 ± 10 nM. Besides, the “% Growth at 50 nM (in vitro, 3D7)” value in data set [2] (% of untreated control) was greater than 90%. Moreover, the “inhibitory activity at 50 nM (in vitro, 3D7)” value in data set [2] (100 minus % growth) is reported as less than 10%. The 50% effective concentration (EC50) in data set [3] (ref Golldack[4] et al. 2017) is 140 ± 10 nM.

A word on the Ki: it is the dissociation constant of the complex between target and ligand, obtained from inhibition or displacement. By EC50 is commonly meant the concentration needed to bring the measured effect to its halfway point. The chromatographic logD is lipophilicity estimated from chromatographic retention. Low readings indicate lower lipophilicity, high ones higher lipophilicity. The term IC50 denotes the midpoint of a concentration-inhibition curve.

Source of the values: paper PMC11513924, “Addressing the Intracellular Vestibule of the Plasmodial Lactate Transporter PfFNT by p-Substituted Inhibitors Amplifies In Vitro Activity” (Journal of Medicinal Chemistry, 2024).
